{"source": "patent US20130244963A1", "about": "(Portola Pharmaceuticals, Inc., priority 2010, published 2013)", "key": {"[1]": {"test_system": "collagen induced arthritis (CIA)", "assay": "Rat Collagen Induced Arthritis (CIA) Model, hind paw inflammation score", "assay_type": "in vivo", "design": "scale not given here", "text": "Holmdahl R, Lorentzen J C, Lu S, Olofsson P, Wester L, Holmberg J, et al. Arthritis in rats with non-immunogenic adjuvants as models for rheumatoid arthritis. […] On day 10, the rats were boosted with a second subcutaneous injection. Test article administration was initiated when at least one hind paw was inflamed (clinical arthritis score=1) and enrollment into a treatment group was designated as day 1 of the study for each individual animal (n=4 to 8/dose group). Progression of disease was evidenced by increased edema and erythema of one or both ankle joints, followed by the involvement of the metatarsal and interphalangeal joints. […] Hind paws were scored daily (inflammation score) for progression of disease and evaluated for histopathological changes in cartilage structure, cellularity, matrix glycoaminoglycans, and synovial inflammation at the end of the 16-day treatment course. […] In Tables below, mean scores are calculated for all animals in dosed group over the entire experimental time course."}, "[2]": {"assay": "Lymphocyte counts in rats with bovine collagen antibody mediated inflammation", "assay_type": "in vivo, rat", "settings": "rat, in vivo", "text": "In 7 control rats treated with vehicle, lymphocyte count was […]. In 4 rats treated with dexamethasone, count=2.32×10^3/μL, p=0.42. However 3 out of 4 of rats did suffer from lymphopenia."}, "Src kinase": {"target": "Src kinase (Homo sapiens, UniProt P12931)", "sequence (P12931 whole entry)": "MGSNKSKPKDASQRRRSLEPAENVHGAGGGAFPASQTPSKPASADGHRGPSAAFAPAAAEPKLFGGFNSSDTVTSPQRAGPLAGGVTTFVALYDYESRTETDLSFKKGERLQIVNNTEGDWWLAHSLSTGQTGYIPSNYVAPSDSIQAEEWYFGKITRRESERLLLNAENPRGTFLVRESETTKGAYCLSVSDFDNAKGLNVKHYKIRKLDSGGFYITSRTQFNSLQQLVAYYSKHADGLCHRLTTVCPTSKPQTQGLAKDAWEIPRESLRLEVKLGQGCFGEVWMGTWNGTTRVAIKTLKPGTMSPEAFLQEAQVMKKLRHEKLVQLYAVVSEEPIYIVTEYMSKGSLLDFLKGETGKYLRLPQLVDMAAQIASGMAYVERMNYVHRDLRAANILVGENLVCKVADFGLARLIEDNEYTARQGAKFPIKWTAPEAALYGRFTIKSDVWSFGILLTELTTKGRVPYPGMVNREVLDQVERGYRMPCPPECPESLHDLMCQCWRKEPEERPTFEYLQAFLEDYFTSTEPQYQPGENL", "settings": "cited from earlier work"}, "JAK kinases": {"test_system": "JAK kinases", "settings": "cited from earlier work"}, "cKit": {"target": "cKit (Homo sapiens, UniProt P10721)", "sequence (P10721 26-976)": "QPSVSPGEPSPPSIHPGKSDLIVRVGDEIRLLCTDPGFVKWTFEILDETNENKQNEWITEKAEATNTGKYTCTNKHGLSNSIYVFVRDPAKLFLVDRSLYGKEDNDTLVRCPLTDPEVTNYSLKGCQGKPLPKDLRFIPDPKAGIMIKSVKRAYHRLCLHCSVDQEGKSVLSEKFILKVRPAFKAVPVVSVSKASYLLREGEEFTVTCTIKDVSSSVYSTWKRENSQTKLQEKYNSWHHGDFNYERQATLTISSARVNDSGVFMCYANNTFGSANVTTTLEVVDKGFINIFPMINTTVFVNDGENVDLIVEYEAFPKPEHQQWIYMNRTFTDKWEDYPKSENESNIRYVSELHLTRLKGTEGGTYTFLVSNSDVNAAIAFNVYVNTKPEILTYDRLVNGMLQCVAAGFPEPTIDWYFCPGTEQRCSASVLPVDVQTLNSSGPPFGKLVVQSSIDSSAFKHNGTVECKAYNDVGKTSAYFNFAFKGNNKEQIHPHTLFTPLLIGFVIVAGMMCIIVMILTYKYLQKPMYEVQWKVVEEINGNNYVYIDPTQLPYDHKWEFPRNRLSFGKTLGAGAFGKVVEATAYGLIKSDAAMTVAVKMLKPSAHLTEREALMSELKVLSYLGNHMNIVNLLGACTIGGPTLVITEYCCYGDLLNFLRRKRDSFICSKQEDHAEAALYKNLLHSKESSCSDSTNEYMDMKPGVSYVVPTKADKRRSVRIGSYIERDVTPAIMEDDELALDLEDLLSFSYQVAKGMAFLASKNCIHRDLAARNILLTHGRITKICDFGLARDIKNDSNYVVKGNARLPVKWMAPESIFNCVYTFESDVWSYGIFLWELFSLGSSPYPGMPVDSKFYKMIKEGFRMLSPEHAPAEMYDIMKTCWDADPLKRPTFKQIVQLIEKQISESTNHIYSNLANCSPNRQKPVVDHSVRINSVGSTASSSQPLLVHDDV", "settings": "cited from earlier work"}, "Flt3": {"target": "T1, Flt3 (Homo sapiens, UniProt P36888)", "T1 sequence (P36888 27-993)": "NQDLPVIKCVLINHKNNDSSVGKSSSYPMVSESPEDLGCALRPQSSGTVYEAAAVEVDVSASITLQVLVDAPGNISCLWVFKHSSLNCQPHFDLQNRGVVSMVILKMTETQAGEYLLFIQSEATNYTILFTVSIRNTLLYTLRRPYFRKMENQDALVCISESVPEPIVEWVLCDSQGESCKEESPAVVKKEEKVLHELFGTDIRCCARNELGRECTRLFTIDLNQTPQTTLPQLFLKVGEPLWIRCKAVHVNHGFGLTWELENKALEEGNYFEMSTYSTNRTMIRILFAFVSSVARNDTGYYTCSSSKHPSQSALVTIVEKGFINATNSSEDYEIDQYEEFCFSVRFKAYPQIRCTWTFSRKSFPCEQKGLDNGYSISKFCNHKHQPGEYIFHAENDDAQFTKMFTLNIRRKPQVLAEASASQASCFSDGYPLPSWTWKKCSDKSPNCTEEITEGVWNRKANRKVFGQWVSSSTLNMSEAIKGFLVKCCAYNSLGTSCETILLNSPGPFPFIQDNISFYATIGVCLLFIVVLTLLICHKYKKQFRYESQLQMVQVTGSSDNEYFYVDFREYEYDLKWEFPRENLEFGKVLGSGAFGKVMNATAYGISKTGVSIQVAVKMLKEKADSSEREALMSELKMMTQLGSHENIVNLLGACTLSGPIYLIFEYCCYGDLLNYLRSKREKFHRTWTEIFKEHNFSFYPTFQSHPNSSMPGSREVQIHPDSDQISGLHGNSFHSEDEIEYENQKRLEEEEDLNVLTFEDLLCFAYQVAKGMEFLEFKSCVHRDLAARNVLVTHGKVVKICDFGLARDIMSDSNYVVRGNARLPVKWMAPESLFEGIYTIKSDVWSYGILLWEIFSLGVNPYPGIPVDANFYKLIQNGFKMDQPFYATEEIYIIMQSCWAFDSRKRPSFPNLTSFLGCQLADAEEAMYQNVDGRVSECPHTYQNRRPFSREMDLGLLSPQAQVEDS", "settings": "cited from earlier work"}, "DHL4": {"test_system": "DHL4", "assay": "Viability of DLBCL cell line DHL4 by luminescent ATP detection (Cell Titer Glo)", "assay_type": "cell-based", "settings": "single agents; three days; ATP luminescence", "protocol": "The final concentration of solvent (DMSO) during experimental time course was 1%. The robotic system Biomek 2 was used for all pipetting steps. After three days at 37 degrees in a tissue culture incubator, viability of cells was determined by lysis and luminescent ATP detection. ATP detection was carried out by addition of 20 μL Cell Titer Glo (Promega) following the protocol provided by manufacturer.\nThe concentrations of the inhibitors required to obtain 50, 75 or 90 percent inhibition are plotted in an isobologram (Tallarida R J. Dose response relations in pharmacology, Chapman and Hall/CRC, 2000)."}}, "data": [{"compound": "C[C@@H]1C[C@H]2[C@@H]3CCC4=CC(=O)C=C[C@]4(C)[C@@]3(F)[C@@H](O)C[C@]2(C)[C@@]1(O)C(=O)CO", "note": "[Dexamethasone, reference compound]", "values": [{"measurement": "Maximum Inflammation Score measurement", "setting": "[1]; Dexamethasone 1 mg/Kg", "value": 1.50}, {"measurement": "Mean Inflammation Score", "setting": "[1]; Dexamethasone 1 mg/Kg", "value": 0.188}, {"measurement": "Minimum Inflammation Score measurement", "setting": "[1]; Dexamethasone 1 mg/Kg", "value": 0.0}, {"measurement": "rats suffering from lymphopenia", "setting": "[2]; Lewis, 16 day", "value": "3 out of 4"}, {"measurement": "lymphocyte count (group)", "setting": "[2]", "value": 2320, "unit": "µL⁻¹"}]}, {"compound": "CN(Cc1cnc2nc(N)nc(N)c2n1)c1ccc(C(=O)N[C@@H](CCC(=O)O)C(=O)O)cc1", "note": "[Methotrexate, reference compound]", "values": [{"measurement": "Maximum Inflammation Score measurement", "setting": "[1]; Methotrexate 0.1 mg/kg", "value": 4.63}, {"measurement": "Minimum Inflammation Score measurement", "setting": "[1]; Methotrexate 0.1 mg/kg", "value": 1.25}, {"measurement": "Mean Inflammation Score", "setting": "[1]; Methotrexate 0.1 mg/kg, all animals over entire time course", "value": 3.65}, {"measurement": "Maximum Inflammation Score measurement", "setting": "[1]; Methotrexate 0.3 mg/kg", "value": 5.00}, {"measurement": "Minimum Inflammation Score measurement", "setting": "[1]; Methotrexate 0.3 mg/kg", "value": 1.00}, {"measurement": "Mean Inflammation Score", "setting": "[1]; Methotrexate 0.3 mg/kg, all animals over entire time course", "value": 4.02}, {"measurement": "Maximum Inflammation Score measurement", "setting": "[1]; Methotrexate 1.0 mg/kg", "value": 4.00}, {"measurement": "Minimum Inflammation Score measurement", "setting": "[1]; Methotrexate 1.0 mg/kg", "value": 1.13}, {"measurement": "Mean Inflammation Score", "setting": "[1]; Methotrexate 1.0 mg/kg, all animals over entire time course", "value": 2.90}, {"measurement": "Maximum Inflammation Score measurement", "setting": "[1]; Methotrexate 2.0 mg/kg", "value": 2.50}, {"measurement": "Minimum Inflammation Score measurement", "setting": "[1]; Methotrexate 2.0 mg/kg", "value": 1.00}, {"measurement": "Mean Inflammation Score", "setting": "[1]; Methotrexate 2.0 mg/kg, all animals over entire time course", "value": 2.11}]}, {"compound": "COc1cc(Nc2ncc(F)c(Nc3ccc4c(n3)N(COP(=O)(O)O)C(=O)C(C)(C)O4)n2)cc(OC)c1OC", "note": "[Fostamatinib disodium]", "values": [{"measurement": "activity against Src kinase", "setting": "Src kinase", "value": "not against Src kinsase"}, {"measurement": "activity against JAK kinases", "setting": "JAK kinases", "value": "active"}, {"measurement": "activity against cKit", "setting": "cKit", "value": "active"}, {"measurement": "activity against Flt3", "setting": "Flt3", "value": "active"}]}, {"compound": "COc1cccc2c1C(=O)c1c(O)c3c(c(O)c1C2=O)C[C@@](O)(C(=O)CO)C[C@@H]3O[C@H]1C[C@H](N)[C@H](O)[C@H](C)O1", "note": "[Doxorubicin, reference compound]", "values": [{"measurement": "inhibitory activity on viability of DHL4 cells (in words)", "setting": "DHL4", "value": "dose responsive inhibitory activity"}]}]}
